Assay results published in PMC7665585, “Antidepressive effect of an inward rectifier K^+ channel blocker peptide, tertiapin-RQ” (PLoS ONE, 2020).
“Also recorded” adds a separate entry of the source. Bridge positions count the residues as written; N and C are the ends. Peptide text beside a SMILES is read from it.

Tests used:
[1] = tested on: Male ICR mice; test: Tail suspension test (TST); type: in vivo, mouse
Protocol: We performed mouse behavioral experiments in accordance with our previous study. Male ICR mice (n = 199 in total) aged 5 weeks old were purchased from Shimizu Laboratory Supplies (Kyoto, Japan) and maintained in an animal facility for 7–12 days. They had free access to food and water and were kept in a 12-h light/dark cycle (08:00–20:00). Experiments were carried out between 11:00 and 17:00 in a quiet and air-conditioned experimental room, to which mice were habituated for 30–60 min before each experiment. Animal experiments were performed in accordance with the guidelines of the Physiological Society of Japan and were approved by the Committee for Animal Experiments of Kurashiki University of Science and the Arts. Peptides were dissolved in phosphate-buffered saline (PBS). Peptides were injected intracerebroventricularly (i.c.v.) 30 min before behavioral tests (typically 5 μL/mouse), according to a previous study. The mouse was placed into an anesthetizing jar, to which isoflurane (0.2 mL) was added immediately before. After confirming that the mouse was deeply anesthetized we injected the peptide into the right cerebral ventricle over 30 seconds and the injection needle was kept for 1 min after the injection (i.c.v. coordinates: 0 mm caudal to bregma, 1.0 mm lateral to the midline, and 3.5 mm below the skull). The mouse was placed in a cage set on a heating pad (approximately 33°C) for a few minutes until it spontaneously started to move, and then it was put back into its home cage. Each animal was used only once, except for the wheel running test, which was carried out immediately after the elevated plus-maze.
The tail suspension test (TST) was performed in accordance with the method reported previously. The mouse was hung on a hook using adhesive tape placed 2 cm from the extremity of its tail 50 cm above a table. The amount of time spent immobile was recorded for 5 min.

[2] = tested on: Male ICR mice; test: Forced swim test (FST); type: in vivo, mouse; conditions: i.c.v., 30 min before test, last 4 min of 6 min
Protocol: We performed mouse behavioral experiments in accordance with our previous study. Male ICR mice (n = 199 in total) aged 5 weeks old were purchased from Shimizu Laboratory Supplies (Kyoto, Japan) and maintained in an animal facility for 7–12 days. They had free access to food and water and were kept in a 12-h light/dark cycle (08:00–20:00). Experiments were carried out between 11:00 and 17:00 in a quiet and air-conditioned experimental room, to which mice were habituated for 30–60 min before each experiment. Animal experiments were performed in accordance with the guidelines of the Physiological Society of Japan and were approved by the Committee for Animal Experiments of Kurashiki University of Science and the Arts. Peptides were dissolved in phosphate-buffered saline (PBS). Peptides were injected intracerebroventricularly (i.c.v.) 30 min before behavioral tests (typically 5 μL/mouse), according to a previous study. The mouse was placed into an anesthetizing jar, to which isoflurane (0.2 mL) was added immediately before. […]
The forced swim test (FST) was performed in accordance with the method reported previously. […] The mouse was allowed to swim for 6 min and its activity was measured. […]

[3] = biological target: T1, rat ROMK (Rattus norvegicus, UniProt P35560); test: Whole-cell patch-clamp of ROMK currents in 208–4 cells; type: cell-based
T1 construct: expressed in transfected cells; host or cells: 293T cell line 208-4 (lentiviral transduction, GFP coexpressed)
T1 sequence (P35560 1-391): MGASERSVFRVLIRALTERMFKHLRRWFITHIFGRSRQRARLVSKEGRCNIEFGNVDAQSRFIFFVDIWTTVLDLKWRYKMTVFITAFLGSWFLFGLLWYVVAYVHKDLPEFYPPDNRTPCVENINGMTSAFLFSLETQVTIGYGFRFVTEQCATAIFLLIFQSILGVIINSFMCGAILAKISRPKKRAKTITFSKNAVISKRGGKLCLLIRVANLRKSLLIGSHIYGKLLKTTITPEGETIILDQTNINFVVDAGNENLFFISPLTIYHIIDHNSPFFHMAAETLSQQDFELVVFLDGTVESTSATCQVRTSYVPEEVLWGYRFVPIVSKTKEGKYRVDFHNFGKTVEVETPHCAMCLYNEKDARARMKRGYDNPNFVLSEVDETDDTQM
How it was run: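 ROMK stably expressed in 208–4 cells; GIRK transiently in 293T, recorded 24 h post-transfection; 25°C, Tyrode (high-K+ 50 mM for GIRK), K-aspartate/KCl pipette with 3 mM MgATP. Steps −150 to 10 mV from −70 mV; currents 60 s after peptide; conductance from I-V slope −140 to −100 mV, Ba2+-resistant current subtracted, normalized to 0 μM TPN.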

## TPN-RQ(C3S) [Peptide 45]
[1]; 750 pmole i.c.v., 30 min before test, 5 min recording
  immobile time in TST: decreased the immobile time insignificantly
[2]
  immobile time in FST: decreased the immobile time insignificantly
[3]; blockade at 1 μM estimated from fitted Hill curve (four parameters), whole-cell conductance, n = 3–6
  Activity (ROMK channel blocking activity, percentage of blockade at 1 μM): - (-, <20%)
[3]; whole-cell recordings, listed as TPN-C3S
  ROMK blocking activity (in words): little blocking activity; also recorded: scarcely blocked the channel

## O=[N+]([O-])c1ccc2nc(COCc3nc4ccc([N+](=O)[O-])cc4[nH]3)[nH]c2c1 [VU591]
[1]; i.c.v., 5 μL of 20 mM in dimethyl sulfoxide, n = 4 and 5
  immobile time in TST: significantly decreased the immobile time

## CC[C@H](C)[C@@H]1NC(=O)[C@H](C)NC(=O)[C@H](CCCNC(=N)N)NC(=O)[C@H](CC(N)=O)NC(=O)[C@@H]2CSSC[C@@H](C(=O)NCC(=O)N[C@@H](CCCCN)C(=O)N[C@@H](CCCCN)C(N)=O)NC(=O)[C@H](CCCCN)NC(=O)[C@H](CCCCN)NC(=O)[C@H](Cc3c[nH]c4ccccc34)NC(=O)[C@H](CSSC[C@H](NC(=O)[C@H](CC(C)C)NC(=O)[C@H](C)N)C(=O)N[C@@H](CC(N)=O)C(=O)N2)NC(=O)[C@H](CCC(N)=O)NC(=O)[C@H](Cc2c[nH]cn2)NC(=O)[C@@H]2CCCN2C(=O)[C@H]([C@@H](C)CC)NC1=O [Peptide 59, TPN-RQ(R8A)] (H-ALCNCNRAIIPHQCWKKCGKK-NH2; disulfide 3-14, 5-18)
[3]; blockade at 1 μM estimated from fitted Hill curve (four parameters), whole-cell conductance, n = 3–6, read-out: Activity (ROMK channel blocking activity, percentage of blockade at 1 μM)
  inhibition at 1 µM: 60 to 80%
